The results in this text go back to patent US11584744B2 (UNIVERSITY OF WASHINGTON, priority 2017, dated 2023).

Assay [1] concerns the target recombinant S. aureus MetRS enzyme (Staphylococcus aureus, UniProt A0A0H2XID2). Description: Inhibition of SaMetRS, ATP depletion assay. Type of assay: biochemical. Conditions: read-out: (B) MetRS (S. aureus) IC50. On the procedure: Production of recombinant S. aureus MetRSs. The SaMetRS gene (UniProtKB—A0A0H2XID2) was PCR amplified (Sense 5′-[…]-3′ (SEQ ID NO: 1) and Antisense 5′-[…]-3′ (SEQ ID NO:2)) from genomic DNA isolated from S. aureus (ATCC 29213) cultures. The PCR product was then cloned into the AVA0421 plasmid and sequence verified. The expression of recombinant protein was performed as previously described. The N-terminal 6-His fusion proteins were purified by nickel affinity chromatography followed by size exclusion gel chromatography (Superdex 75 26/60; GE Biosciences, Piscataway, N.J.).
Enzyme assays. Inhibition of SaMetRS was measured using the ATP depletion assay as previously described with some modifications. Compounds were pre-incubated for 15 minutes at room temperature in a 96-well plate with 400 μg/mL bulk E. coli tRNA, 25 nM SaMetRS, 0.1 U/mL pyrophosphatase, 0.2 mM spermine, 0.1 mg/mL bovine serum albumin, 2.5 mM dithiothreitol, 25 mM HEPES-KOH pH 7.9, 10 mM MgCl2, 50 mM KCl, and 2% DMSO. Reagents were purchased from Sigma-Aldrich or Roche. The reaction was started with the addition of 150 nM ATP and 20 μM L-methionine and after 120 minute incubation was stopped by the addition of an equal volume (50 μL) of Kinase-Glo® (Promega). Percent inhibition=100×(test compound−AVG low control)/(AVG high control−AVG low control) where the low control is all reagents except the compound and the high control is all reagents except the compounds and L-methionine. IC50 values were calculated by non-linear regression, sigmoidal-dose response, in Prism 3.0.

Assay [2] has as its system S. aureus MRSA (ATCC 33591). The assay can be described thus: MIC susceptibility testing. It is filed as cell-based, Staphylococcus aureus. The conditions noted are these: Staphylococcus aureus, MRSA ATCC33591; read-out: (G) MRSA (ATCC33591) MIC. An outline of the steps:
(§1)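 CLSI broth microdilution with two-fold compound dilutions, in triplicate; cells added in medium at 1×10^6 CFUs/mL, DMSO ≤0.5%. Media: MHB for S. aureus, CA-MHB for E. coli and E. faecium, CA-MHB plus 3% laked horse blood for S. pyogenes (5% CO2).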

Assay [3] deals with S. aureus MSSA (ATCC 29213). Description: MIC susceptibility testing. The conditions noted are these: S. aureus ATCC 29213; for MIC: Staphylococcus aureus, read-out: (F) S. aureus (ATCC 29213) MIC. Type of assay: cell-based, Staphylococcus aureus.
Assay [4] has as its target T1, MetRS (T. brucei) (Trypanosoma brucei brucei, UniProt Q38C91).
T1 sequence (Q38C91 1-773): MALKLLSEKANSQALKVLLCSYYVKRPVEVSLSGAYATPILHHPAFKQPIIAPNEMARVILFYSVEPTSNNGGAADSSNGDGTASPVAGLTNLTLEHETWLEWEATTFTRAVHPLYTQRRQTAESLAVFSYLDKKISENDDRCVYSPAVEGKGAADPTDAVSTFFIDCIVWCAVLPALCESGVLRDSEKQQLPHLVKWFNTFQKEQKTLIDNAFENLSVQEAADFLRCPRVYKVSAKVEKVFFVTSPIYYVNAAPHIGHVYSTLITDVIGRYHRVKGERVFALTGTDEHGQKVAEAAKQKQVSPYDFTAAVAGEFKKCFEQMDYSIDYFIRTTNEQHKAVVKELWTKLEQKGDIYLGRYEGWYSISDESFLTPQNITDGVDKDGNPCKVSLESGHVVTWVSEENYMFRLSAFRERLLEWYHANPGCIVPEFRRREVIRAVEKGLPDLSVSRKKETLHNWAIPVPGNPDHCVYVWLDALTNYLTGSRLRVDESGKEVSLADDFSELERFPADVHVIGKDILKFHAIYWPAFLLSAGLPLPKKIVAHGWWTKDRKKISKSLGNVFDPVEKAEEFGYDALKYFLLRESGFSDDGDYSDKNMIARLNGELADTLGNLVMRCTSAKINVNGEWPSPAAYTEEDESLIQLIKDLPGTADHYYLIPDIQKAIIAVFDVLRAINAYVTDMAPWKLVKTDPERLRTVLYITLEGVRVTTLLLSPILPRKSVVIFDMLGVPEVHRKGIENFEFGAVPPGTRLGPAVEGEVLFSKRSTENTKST
Description: MetRS (T. brucei) enzyme inhibition. It is filed as biochemical.

The target in assay [5] is MetRS (C. parvum) (Cryptosporidium parvum, UniProt Q5CVN0). The assay can be described thus: MetRS (C. parvum) enzyme inhibition. Conditions: read-out: (C) MetRS (C. parvum) IC50. Type of assay: biochemical.
Chain of MetRS (C. parvum) (Q5CVN0 entry or part of it): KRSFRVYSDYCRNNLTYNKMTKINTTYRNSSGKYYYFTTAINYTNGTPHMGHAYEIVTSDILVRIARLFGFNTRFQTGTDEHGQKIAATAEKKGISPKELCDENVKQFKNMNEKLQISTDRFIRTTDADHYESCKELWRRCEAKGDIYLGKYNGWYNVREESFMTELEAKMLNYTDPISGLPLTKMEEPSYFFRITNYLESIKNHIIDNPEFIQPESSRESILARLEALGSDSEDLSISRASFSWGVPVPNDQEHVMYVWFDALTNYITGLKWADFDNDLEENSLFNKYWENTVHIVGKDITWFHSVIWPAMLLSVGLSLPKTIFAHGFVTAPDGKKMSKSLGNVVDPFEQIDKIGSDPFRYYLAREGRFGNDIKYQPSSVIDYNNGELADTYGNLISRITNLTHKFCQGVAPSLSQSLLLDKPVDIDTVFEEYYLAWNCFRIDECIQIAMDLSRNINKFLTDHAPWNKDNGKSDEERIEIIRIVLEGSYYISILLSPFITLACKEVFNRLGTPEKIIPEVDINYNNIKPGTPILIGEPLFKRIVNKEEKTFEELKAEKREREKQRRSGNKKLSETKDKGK
In assay [6] the test system is T. cruzi. The assay can be described thus: T. cruzi growth inhibition. The conditions noted are these: read-out: (E) T. cruzi EC50. Type of assay: cell-based, Trypanosoma cruzi.
For assay [7], the system named is E. faecium VRE (ATCC 51559). Description: MIC susceptibility testing. Type of assay: cell-based, Enterococcus faecium. The conditions noted are these: Enterococcus faecium, E. faecium ATCC 51559; read-out: (I) E. faecium (ATCC 51559) MIC. An outline of the steps: as §1
Assay [8] relates to T. brucei. The assay can be described thus: T. brucei growth inhibition. It is filed as cell-based, Trypanosoma brucei. Conditions: Trypanosoma brucei; read-out: (D) T. brucei EC50.
Assay [9] deals with C. parvum. Description: C. parvum growth inhibition. Conditions: read-out: (J) C. parvum EC50. Type of assay: cell-based, Cryptosporidium parvum.

pEC50, pIC50: −log10 of the molar value. Values after ≈ are worked out from the molar mass of the structure shown. Values joined by “and” are separate entries in the source; they are usually repeats but may differ in a detail not shown here. Equal values may be shown once. Read-outs that look alike come from different tables or passages of the source.

Chain of recombinant S. aureus MetRS enzyme (A0A0H2XID2 2-657): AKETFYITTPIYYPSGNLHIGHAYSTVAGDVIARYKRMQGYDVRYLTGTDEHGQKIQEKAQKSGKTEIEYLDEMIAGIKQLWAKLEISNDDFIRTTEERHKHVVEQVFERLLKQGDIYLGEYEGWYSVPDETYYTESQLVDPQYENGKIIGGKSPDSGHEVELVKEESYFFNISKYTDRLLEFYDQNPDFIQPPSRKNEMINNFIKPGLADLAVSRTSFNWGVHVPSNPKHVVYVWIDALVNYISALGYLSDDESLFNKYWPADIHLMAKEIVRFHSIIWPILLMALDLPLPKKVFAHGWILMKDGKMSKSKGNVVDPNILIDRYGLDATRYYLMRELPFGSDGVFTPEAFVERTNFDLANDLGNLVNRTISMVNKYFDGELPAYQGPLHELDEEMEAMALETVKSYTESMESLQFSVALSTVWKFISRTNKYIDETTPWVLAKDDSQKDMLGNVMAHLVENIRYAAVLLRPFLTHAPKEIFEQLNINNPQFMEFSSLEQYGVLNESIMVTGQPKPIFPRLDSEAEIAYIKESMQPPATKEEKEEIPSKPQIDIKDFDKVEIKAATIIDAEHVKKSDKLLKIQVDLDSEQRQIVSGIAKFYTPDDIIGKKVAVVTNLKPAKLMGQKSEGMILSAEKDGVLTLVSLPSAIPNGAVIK

A word on the pIC50: it is the negative decadic logarithm of the IC50, by convention in mol/L. For orientation: MIC means the smallest concentration in the dilution series that meets the test's criterion for growth inhibition. As a reminder, the pEC50 is −log10 of the EC50, conventionally taken in molar units. Turning to `O=c1n(Cc2nc3ccc(F)nc3[nH]2)cc(Cc2ccc(Cl)cc2Cl)n1CC1CCOCC1` [Compound 2087, 4-[(2,4-dichlorophenyl)methyl]-1-({5-fluoro-1H-imidazo[4,5-b]pyridin-2-yl}methyl)-3-[(oxan-4-yl)methyl]-2,3-dihydro-1H-imidazol-2-one], the pIC50 was > 7.60 in assay [1], > 7.40 in assay [4] and > 7.40 in assay [5]. The MIC is 1.67 µg/mL (≈ 3.41 µM) in assay [2] and 0.254 µg/mL (≈ 0.518 µM) in assay [3]. Also, in [6] (Trypanosoma cruzi), the pEC50 was 6.45.

Regarding `COc1cc(-c2cccc3nc(Cc4nc5nc(F)ccc5[nH]4)cn23)c(Cl)cc1Cl` [Compound 2129, 5-(2,4-dichloro-5-methoxyphenyl)-2-({5-fluoro-1H-imidazo[4,5-b]pyridin-2-yl}methyl)imidazo[1,2-a]pyridine], the results for the pIC50 in [1], in assay [4] and in [5] were > 7.60, > 7.40 and > 7.40, respectively. The pEC50 in [6] (Trypanosoma cruzi) is 6.99; in assay [6] it was 7.09.

Take `O=C(c1cn(Cc2nc3ccc(Cl)nc3[nH]2)c(=O)[nH]1)c1ccc(Cl)cc1Cl` [Compound 2201, 1-({5-chloro-1H-imidazo[4,5-b]pyridin-2-yl}methyl)-4-(2,4-dichlorobenzoyl)-2,3-dihydro-1H-imidazol-2-one]: the minimum inhibitory concentration (MIC) in [2] is 0.701 µg/mL (≈ 1.66 µM); in assay [3], 0.863 µg/mL (≈ 2.04 µM); in assay [7], 0.979 µg/mL (≈ 2.32 µM). For the same compound, in assay [3], the “(F) S. aureus (ATCC 29213) MIC” value is 0.946 µg/mL. Besides, the pIC50 in [4] was > 7.40; in [5] it was 7.14. The negative-log EC50 (pEC50) was 8.31 in assay [8], 6.68 in [6] (Trypanosoma cruzi) and < 5.70 in [9] (Cryptosporidium parvum).

Turning to `COc1cc(Cl)c(-c2cnn3c2CN(Cc2nc4nc(Cl)ccc4[nH]2)CC3)cc1OC` [Compound 2205, 5-chlor0-2-((3-(2-chloro-4,5-dimethoxyphenyl)-6,7-dihydropyrazolo[1,5-a]pyrazin-5(4H)-yl)methyl)-1H-imidazo[4,5-b]pyridine], the MIC in [2] was 0.265 µg/mL (≈ 0.577 µM); in assay [3], 0.652 µg/mL (≈ 1.42 µM); in [7] it was 0.0839 µg/mL (≈ 0.183 µM). Moreover, the “(F) S. aureus (ATCC 29213) MIC” value in assay [3] was 0.441, μg/ml and 0.450 μg/ml. For the same compound, the pIC50 was > 7.40 in [4] and 7.19 in [5]. Moreover, the values for the pEC50 in [8], in assay [6] (Trypanosoma cruzi) and in assay [9] (Cryptosporidium parvum) were 7.91, 6.96 and < 5.70, respectively.

As for `COc1cc(Cl)c(-c2cccc3nc(Cc4nc5nc(F)ccc5[nH]4)cn23)cc1OC` [Compound 2145, 5-(2-chloro-4,5-dimethoxyphenyl)-2-({5-fluoro-1H-imidazo[4,5-b]pyridin-2-yl}methyl)imidazo[1,2-a]pyridine], the pIC50 in assay [1] was > 7.60; in assay [4], > 7.40; in [5], 7.13. In addition, the pEC50 was 7.18 in [6] (Trypanosoma cruzi), 6.89 in assay [6] and < 5.70 in [9] (Cryptosporidium parvum).

For `CS(=O)(=O)c1nc(Cc2ccc(Cl)cc2Cl)cn1Cc1nc2nc(Cl)ccc2[nH]1` [Compound 2111, 1-({5-chloro-1H-imidazo[4,5-b]pyridin-2-yl}methyl)-4-[(2,4-dichlorophenyl)methyl]-2-methanesulfonyl-1H-imidazole], the values for the pIC50 in assay [1], in assay [4] and in assay [5] were > 7.60, > 7.40 and 6.84, respectively. The MIC in [3] was determined as 1.25 µg/mL (≈ 2.66 µM). Moreover, the pEC50 in assay [8] is 7.26; in assay [6] (Trypanosoma cruzi), 6.35.

For the compound `CS(=O)(=O)c1nc(Cc2ccc(Cl)cc2Cl)cn1Cc1nc2ccc(F)nc2[nH]1` [Compound 2105, 4-[(2,4-dichlorophenyl)methyl]-1-({5-fluoro-1H-imidazo[4,5-b]pyridin-2-yl}methyl)-2-methanesulfonyl-1H-imidazole], the pIC50 in [1] is > 7.60; in [4], > 7.40; in [5], 6.96. Moreover, in assay [3], the MIC stood at 2.15 µg/mL (≈ 4.73 µM). Also, the pEC50 was 7.15 in [8] and 6.06 in assay [6] (Trypanosoma cruzi).

Consider `COc1ccc(-c2ccc(NC(C)=O)c3nc(Cc4nc5cc(Cl)ccc5[nH]4)cn23)c(Cl)c1` [Compound 2180, N-{2-[(6-chloro-1H-1,3-benzodiazol-2-yl)methyl]-5-(2-chloro-4-methoxyphenyl)imidazo[1,2-a]pyridin-8-yl}acetamide], for which the MIC in assay [2] was found to be 0.515 µg/mL (≈ 1.07 µM); in assay [3], 0.362 µg/mL (≈ 0.754 µM); in [7], 0.357 µg/mL (≈ 0.743 µM). Besides, the pIC50 in assay [4] and in assay [5] was > 7.40 each time. Also, the pEC50 in assay [8] is 7.73; in assay [6] (Trypanosoma cruzi) it was 6.75; in assay [9] (Cryptosporidium parvum), 6.18; in [9], 6.19.

As for `COc1ccc(-c2cccc3c2CN(Cc2nc4nc(Cl)ccc4[nH]2)C3)c(Cl)c1` [Compound 2224, 5-chlor0-2-((4-(2-chloro-4-methoxyphenyl)isoindolin-2-yl)methyl)-1H-imidazo[4,5-b]pyridine], the minimum inhibitory concentration (MIC) in assay [2] was 1.17 µg/mL (≈ 2.75 µM); in [3], 1.07 µg/mL (≈ 2.52 µM); in assay [7], 0.995 µg/mL (≈ 2.34 µM). The “(F) S. aureus (ATCC 29213) MIC” value in [3] worked out at 1.37 µg/mL. Also, the pIC50 is 7.28 in assay [4] and > 7.40 in [5]. Further, the pEC50 was 7.63 in assay [8], 6.76 in assay [6] (Trypanosoma cruzi) and < 5.70 in [9] (Cryptosporidium parvum).

For `COc1ccc(-c2cncc3nc(Cc4nc5nc(Cl)ccc5[nH]4)cn23)c(Cl)c1` [Compound 2156, 2-({5-chloro-1H-imidazo[4,5-b]pyridin-2-yl}methyl)-5-(2-chloro-4-methoxyphenyl)imidazo[1,2-a]pyrazine], the figures for the MIC in [2], in [3] and in [7] were 0.285 µg/mL (≈ 0.67 µM), 1.1 µg/mL (≈ 2.59 µM) and 1.49 µg/mL (≈ 3.5 µM), respectively. In assay [3], the “(F) S. aureus (ATCC 29213) MIC” value came to 0.946 µg/mL. For the same compound, the pIC50 in [4] and in [5] was > 7.40 each time. The negative-log EC50 (pEC50) in assay [8] was 7.49; in assay [6] (Trypanosoma cruzi), 6.50; in assay [9] (Cryptosporidium parvum), 5.89.

On to `O=c1n(Cc2nc3nc(F)ccc3[nH]2)cc(Cc2ccc(Cl)cc2Cl)n1C1CCOCC1` [Compound 2088, 4-[(2,4-dichlorophenyl)methyl]-1-({5-fluoro-1H-imidazo[4,5-b]pyridin-2-yl}methyl)-3-(oxan-4-yl)-2,3-dihydro-1H-imidazol-2-one], for which the pIC50 is > 7.60 in [1], > 7.40 in assay [4] and > 7.40 in [5]. Besides, the MIC in assay [2] was found to be 1.5 µg/mL (≈ 3.15 µM); in [3] it was 0.424 µg/mL (≈ 0.89 µM). In addition, the negative-log EC50 (pEC50) in assay [6] (Trypanosoma cruzi) is 6.58.
